According to ChEMBL document CHEMBL4507310, “Data for DCP probe A-1211212” (2021):

Key:
[1] = molecular target: Prostaglandin G/H synthase 1 (Homo sapiens) (UniProt P23219); assay: COX1(h) Eurofins-Cerep enzyme and uptake assay; conditions: Compound concentration 10.0 uM
[2] = molecular target: Histamine H2 receptor (Homo sapiens) (UniProt P25021); assay: H2 (h) Eurofins-Cerep binding assay; design: ligand concentration 0.075 nM; conditions: filed as antagonist, Compound concentration 10.0 uM
[3] = molecular target: MAO-A (amine oxidase [flavin-containing] A) (Rattus norvegicus, UniProt P21396); assay: MAO-A Eurofins-Cerep binding assay; design: incubation time 60 min, incubation temperature 37°C, ligand concentration 10 nM; conditions: rat cerebral cortex, probe [3H]Ro 41-1049 (10 nM), compound concentration 10 uM, read-out: % Inhibition of Control Specific Binding (Mean n=2)
Chain of MAO-A (amine oxidase [flavin-containing] A) (P21396 whole entry): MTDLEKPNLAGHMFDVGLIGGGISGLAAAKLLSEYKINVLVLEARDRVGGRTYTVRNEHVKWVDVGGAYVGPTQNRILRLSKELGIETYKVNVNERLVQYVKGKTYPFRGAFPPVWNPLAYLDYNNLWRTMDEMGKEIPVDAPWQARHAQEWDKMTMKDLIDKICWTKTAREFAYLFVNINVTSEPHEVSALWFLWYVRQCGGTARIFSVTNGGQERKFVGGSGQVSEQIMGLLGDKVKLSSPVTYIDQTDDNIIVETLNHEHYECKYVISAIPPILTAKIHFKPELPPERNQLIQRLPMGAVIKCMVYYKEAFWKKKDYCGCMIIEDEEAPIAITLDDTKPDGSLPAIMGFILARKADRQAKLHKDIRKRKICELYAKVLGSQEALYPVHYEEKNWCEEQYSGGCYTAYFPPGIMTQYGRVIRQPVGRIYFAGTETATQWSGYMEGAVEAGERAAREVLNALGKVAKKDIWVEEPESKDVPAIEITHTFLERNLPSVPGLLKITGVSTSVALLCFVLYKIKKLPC

[4] = molecular target: Urotensin-2 receptor (Homo sapiens) (UniProt Q9UKP6); assay: UT (h) Eurofins-Cerep binding assay; design: ligand concentration 0.1 nM; conditions: filed as agonist, Compound concentration 10.0 uM
Chain of Urotensin-2 receptor (Homo sapiens) (Q9UKP6 whole entry): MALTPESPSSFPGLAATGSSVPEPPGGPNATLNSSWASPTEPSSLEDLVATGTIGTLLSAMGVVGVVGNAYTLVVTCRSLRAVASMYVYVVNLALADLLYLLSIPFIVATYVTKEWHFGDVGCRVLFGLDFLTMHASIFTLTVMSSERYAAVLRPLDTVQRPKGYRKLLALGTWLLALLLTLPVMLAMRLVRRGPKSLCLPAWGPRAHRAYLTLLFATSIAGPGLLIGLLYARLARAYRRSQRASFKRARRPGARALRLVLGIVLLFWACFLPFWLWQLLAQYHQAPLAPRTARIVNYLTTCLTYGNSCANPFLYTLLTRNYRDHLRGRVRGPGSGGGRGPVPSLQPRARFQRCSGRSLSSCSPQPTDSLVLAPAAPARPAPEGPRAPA

[5] = molecular target: Sodium-dependent dopamine transporter (Homo sapiens, UniProt Q01959); assay: dopamine transporter (h) Eurofins-Cerep binding assay; design: ligand concentration 4 nM; conditions: filed as antagonist, Compound concentration 10.0 uM
[6] = molecular target: BMP-2-inducible protein kinase (Homo sapiens) (UniProt Q9NSY1); conditions: Compound concentration 1000.0 nM
[7] = molecular target: Serine/threonine-protein kinase BRSK2 (Homo sapiens) (UniProt Q8IWQ3); conditions: Compound concentration 1000.0 nM
[8] = molecular target: Calcium/calmodulin-dependent protein kinase type 1D (Homo sapiens) (UniProt Q8IU85); conditions: Compound concentration 1000.0 nM
Chain of Calcium/calmodulin-dependent protein kinase type 1D (Homo sapiens) (Q8IU85 whole entry, looked up): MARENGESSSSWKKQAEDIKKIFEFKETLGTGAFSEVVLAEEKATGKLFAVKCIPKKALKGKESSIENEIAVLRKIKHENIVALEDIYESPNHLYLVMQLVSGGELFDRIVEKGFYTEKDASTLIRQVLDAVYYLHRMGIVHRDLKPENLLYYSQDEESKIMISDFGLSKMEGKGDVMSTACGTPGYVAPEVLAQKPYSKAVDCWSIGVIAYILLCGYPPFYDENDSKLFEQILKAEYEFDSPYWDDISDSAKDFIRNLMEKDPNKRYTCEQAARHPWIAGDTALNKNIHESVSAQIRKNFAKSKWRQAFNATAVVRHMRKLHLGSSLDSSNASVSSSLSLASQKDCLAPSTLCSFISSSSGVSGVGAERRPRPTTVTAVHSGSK

[9] = molecular target: Cyclin-dependent kinase 8 (Homo sapiens) (UniProt P49336); conditions: Compound concentration 1000.0 nM
[10] = molecular target: Serine/threonine-protein kinase Chk2 (Homo sapiens) (UniProt O96017); conditions: Compound concentration 1000.0 nM
[11] = tested on: Epidermal growth factor receptor (Homo sapiens), P00533 [G719C]; conditions: Compound concentration 1000.0 nM
[12] = molecular target: Ephrin type-A receptor 5 (Homo sapiens) (UniProt P54756); conditions: Compound concentration 1000.0 nM
[13] = molecular target: Fibroblast growth factor receptor 2 (Homo sapiens) (UniProt P21802); conditions: Compound concentration 1000.0 nM
[14] = molecular target: Glycogen synthase kinase-3 alpha (Homo sapiens) (UniProt P49840); conditions: Compound concentration 1000.0 nM
[15] = molecular target: Serine/threonine-protein kinase haspin (Homo sapiens) (UniProt Q8TF76); conditions: Compound concentration 1000.0 nM
[16] = molecular target: Inhibitor of nuclear factor kappa-B kinase subunit alpha (Homo sapiens) (UniProt O15111); conditions: Compound concentration 1000.0 nM
[17] = molecular target: Tyrosine-protein kinase JAK1 (Homo sapiens) (UniProt P23458); conditions: Compound concentration 1000.0 nM
[18] = molecular target: Mast/stem cell growth factor receptor Kit (Homo sapiens) (UniProt P10721); conditions: Compound concentration 1000.0 nM
Chain of Mast/stem cell growth factor receptor Kit (Homo sapiens) (P10721 whole entry): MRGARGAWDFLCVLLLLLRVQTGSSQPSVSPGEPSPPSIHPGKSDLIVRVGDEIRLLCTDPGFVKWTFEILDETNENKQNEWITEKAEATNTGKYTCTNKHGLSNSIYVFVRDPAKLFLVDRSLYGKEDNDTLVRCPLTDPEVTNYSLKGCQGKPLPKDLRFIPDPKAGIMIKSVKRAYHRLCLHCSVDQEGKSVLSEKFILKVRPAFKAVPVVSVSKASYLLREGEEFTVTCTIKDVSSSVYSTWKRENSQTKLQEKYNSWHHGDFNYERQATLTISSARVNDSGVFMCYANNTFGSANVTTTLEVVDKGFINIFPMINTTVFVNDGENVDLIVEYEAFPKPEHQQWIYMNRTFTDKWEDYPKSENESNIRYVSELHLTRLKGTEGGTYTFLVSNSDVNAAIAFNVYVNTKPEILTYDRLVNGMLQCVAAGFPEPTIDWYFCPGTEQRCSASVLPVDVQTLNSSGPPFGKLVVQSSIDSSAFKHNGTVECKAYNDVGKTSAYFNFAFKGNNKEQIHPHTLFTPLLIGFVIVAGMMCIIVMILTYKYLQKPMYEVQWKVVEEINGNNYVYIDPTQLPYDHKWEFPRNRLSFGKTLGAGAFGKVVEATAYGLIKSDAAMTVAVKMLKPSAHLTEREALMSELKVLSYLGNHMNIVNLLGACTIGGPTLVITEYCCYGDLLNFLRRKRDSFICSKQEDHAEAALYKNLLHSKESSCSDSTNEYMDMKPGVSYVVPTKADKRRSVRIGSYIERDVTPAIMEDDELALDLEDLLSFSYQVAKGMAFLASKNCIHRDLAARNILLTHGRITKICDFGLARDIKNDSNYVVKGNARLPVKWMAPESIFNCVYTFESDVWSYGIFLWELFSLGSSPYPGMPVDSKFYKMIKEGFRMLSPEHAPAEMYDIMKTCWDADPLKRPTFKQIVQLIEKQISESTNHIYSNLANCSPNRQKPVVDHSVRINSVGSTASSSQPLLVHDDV

[19] = tested on: Mast/stem cell growth factor receptor Kit (Homo sapiens), P10721 [V559D,T670I]; conditions: Compound concentration 1000.0 nM
[20] = molecular target: Mitogen-activated protein kinase kinase kinase 13 (Homo sapiens) (UniProt O43283); conditions: Compound concentration 1000.0 nM
[21] = molecular target: Mitogen-activated protein kinase kinase kinase 4 (Homo sapiens) (UniProt Q9Y6R4); conditions: Compound concentration 1000.0 nM
[22] = molecular target: Serine/threonine-protein kinase MARK1 (Homo sapiens) (UniProt Q9P0L2); conditions: Compound concentration 1000.0 nM
[23] = molecular target: Mitogen-activated protein kinase 12 (Homo sapiens) (UniProt P53778); conditions: Compound concentration 1000.0 nM
[24] = molecular target: Cyclin-dependent kinase 18 (Homo sapiens) (UniProt Q07002); conditions: Compound concentration 1000.0 nM
[25] = molecular target: Platelet-derived growth factor receptor alpha (Homo sapiens) (UniProt P16234); conditions: Compound concentration 1000.0 nM
[26] = tested on: Phosphatidylinositol 4,5-bisphosphate 3-kinase catalytic subunit alpha isoform (Homo sapiens), P42336 [C420R]; conditions: Compound concentration 1000.0 nM
[27] = tested on: Phosphatidylinositol 4,5-bisphosphate 3-kinase catalytic subunit alpha isoform (Homo sapiens), P42336 [M1043I]; conditions: Compound concentration 1000.0 nM
Chain of Phosphatidylinositol 4,5-bisphosphate 3-kinase catalytic subunit alpha isoform (Homo sapiens), P42336 [M1043I] (P42336 whole entry M1043I, canonical isoform): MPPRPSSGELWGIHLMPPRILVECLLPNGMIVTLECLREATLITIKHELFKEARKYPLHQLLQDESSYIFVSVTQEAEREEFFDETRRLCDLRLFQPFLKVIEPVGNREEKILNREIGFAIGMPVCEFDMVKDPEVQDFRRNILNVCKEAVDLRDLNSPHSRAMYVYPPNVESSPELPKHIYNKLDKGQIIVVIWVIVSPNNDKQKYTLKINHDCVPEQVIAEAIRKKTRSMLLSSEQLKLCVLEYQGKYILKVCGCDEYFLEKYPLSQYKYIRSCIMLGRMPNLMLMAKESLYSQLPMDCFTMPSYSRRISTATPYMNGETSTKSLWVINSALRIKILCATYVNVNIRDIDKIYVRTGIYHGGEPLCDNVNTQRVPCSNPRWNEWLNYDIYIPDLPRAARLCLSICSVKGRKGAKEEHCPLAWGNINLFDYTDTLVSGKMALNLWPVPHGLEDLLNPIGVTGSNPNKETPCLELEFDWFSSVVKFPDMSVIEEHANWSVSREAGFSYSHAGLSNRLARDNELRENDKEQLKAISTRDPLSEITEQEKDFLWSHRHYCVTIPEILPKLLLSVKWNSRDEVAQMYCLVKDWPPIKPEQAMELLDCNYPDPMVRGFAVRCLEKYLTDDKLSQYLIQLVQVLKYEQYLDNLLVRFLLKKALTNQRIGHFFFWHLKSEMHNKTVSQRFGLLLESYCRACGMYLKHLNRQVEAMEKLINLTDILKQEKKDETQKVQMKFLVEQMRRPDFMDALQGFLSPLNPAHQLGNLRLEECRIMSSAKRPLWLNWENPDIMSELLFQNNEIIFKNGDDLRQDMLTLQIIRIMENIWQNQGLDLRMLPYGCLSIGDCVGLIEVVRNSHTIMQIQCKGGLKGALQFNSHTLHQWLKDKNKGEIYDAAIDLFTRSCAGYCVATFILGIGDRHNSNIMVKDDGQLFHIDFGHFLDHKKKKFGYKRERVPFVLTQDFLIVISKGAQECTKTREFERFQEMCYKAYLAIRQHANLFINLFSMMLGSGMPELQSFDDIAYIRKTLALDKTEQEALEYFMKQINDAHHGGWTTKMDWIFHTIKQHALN

[28] = molecular target: Serine/threonine-protein kinase pim-2 (Homo sapiens) (UniProt Q9P1W9); conditions: Compound concentration 1000.0 nM
Chain of Serine/threonine-protein kinase pim-2 (Homo sapiens) (Q9P1W9 whole entry, looked up): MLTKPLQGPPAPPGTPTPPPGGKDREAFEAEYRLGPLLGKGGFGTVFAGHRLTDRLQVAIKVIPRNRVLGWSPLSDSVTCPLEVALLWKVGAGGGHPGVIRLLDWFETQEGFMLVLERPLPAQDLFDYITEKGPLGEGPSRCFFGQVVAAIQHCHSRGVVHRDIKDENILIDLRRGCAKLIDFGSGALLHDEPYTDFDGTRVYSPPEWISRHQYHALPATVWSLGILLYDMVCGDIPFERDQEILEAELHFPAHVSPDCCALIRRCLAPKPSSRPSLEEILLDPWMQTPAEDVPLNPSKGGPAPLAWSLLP

[29] = molecular target: Serine/threonine-protein kinase pim-3 (Homo sapiens) (UniProt Q86V86); conditions: Compound concentration 1000.0 nM
[30] = molecular target: cAMP-dependent protein kinase catalytic subunit PRKX (Homo sapiens) (UniProt P51817); conditions: Compound concentration 1000.0 nM
Chain of cAMP-dependent protein kinase catalytic subunit PRKX (Homo sapiens) (P51817 whole entry): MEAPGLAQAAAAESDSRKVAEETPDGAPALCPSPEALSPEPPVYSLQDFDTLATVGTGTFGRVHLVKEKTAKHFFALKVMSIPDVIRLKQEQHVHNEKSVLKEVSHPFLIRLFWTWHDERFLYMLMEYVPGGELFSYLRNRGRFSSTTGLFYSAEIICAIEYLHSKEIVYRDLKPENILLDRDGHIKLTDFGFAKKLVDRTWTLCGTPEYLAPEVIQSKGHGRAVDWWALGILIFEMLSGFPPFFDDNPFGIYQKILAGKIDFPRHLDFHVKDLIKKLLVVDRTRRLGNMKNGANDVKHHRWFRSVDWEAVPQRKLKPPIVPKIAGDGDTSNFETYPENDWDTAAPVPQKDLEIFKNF

[31] = molecular target: Ribosomal protein S6 kinase beta-1 (Homo sapiens) (UniProt P23443); conditions: Compound concentration 1000.0 nM
[32] = molecular target: Dual specificity testis-specific protein kinase 1 (Homo sapiens) (UniProt Q15569); conditions: Compound concentration 1000.0 nM
[33] = molecular target: Dual specificity protein kinase TTK (Homo sapiens) (UniProt P33981); conditions: Compound concentration 1000.0 nM
[34] = molecular target: Serine/threonine-protein kinase ULK2 (Homo sapiens) (UniProt Q8IYT8); conditions: Compound concentration 1000.0 nM
[35] = molecular target: 5-hydroxytryptamine receptor 2A (Homo sapiens) (UniProt P28223); conditions: Compound concentration 10.0 uM
[36] = molecular target: T1, Muscarinic acetylcholine receptor M4 (Homo sapiens) (UniProt P08173); conditions: Compound concentration 10.0 uM
T1 sequence (whole entry): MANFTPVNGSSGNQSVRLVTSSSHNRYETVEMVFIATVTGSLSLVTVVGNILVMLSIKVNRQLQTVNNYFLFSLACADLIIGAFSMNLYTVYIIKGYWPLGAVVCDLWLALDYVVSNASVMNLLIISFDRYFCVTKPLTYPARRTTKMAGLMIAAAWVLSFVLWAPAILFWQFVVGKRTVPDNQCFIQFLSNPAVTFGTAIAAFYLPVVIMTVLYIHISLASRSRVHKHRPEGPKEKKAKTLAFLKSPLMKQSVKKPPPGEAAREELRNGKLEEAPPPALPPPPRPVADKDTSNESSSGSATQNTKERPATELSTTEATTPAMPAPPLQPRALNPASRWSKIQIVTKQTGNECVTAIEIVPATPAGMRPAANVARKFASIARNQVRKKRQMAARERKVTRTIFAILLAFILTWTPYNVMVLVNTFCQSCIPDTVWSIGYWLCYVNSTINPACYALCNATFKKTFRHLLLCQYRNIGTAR

Chain of Prostaglandin G/H synthase 1 (Homo sapiens) (P23219 whole entry): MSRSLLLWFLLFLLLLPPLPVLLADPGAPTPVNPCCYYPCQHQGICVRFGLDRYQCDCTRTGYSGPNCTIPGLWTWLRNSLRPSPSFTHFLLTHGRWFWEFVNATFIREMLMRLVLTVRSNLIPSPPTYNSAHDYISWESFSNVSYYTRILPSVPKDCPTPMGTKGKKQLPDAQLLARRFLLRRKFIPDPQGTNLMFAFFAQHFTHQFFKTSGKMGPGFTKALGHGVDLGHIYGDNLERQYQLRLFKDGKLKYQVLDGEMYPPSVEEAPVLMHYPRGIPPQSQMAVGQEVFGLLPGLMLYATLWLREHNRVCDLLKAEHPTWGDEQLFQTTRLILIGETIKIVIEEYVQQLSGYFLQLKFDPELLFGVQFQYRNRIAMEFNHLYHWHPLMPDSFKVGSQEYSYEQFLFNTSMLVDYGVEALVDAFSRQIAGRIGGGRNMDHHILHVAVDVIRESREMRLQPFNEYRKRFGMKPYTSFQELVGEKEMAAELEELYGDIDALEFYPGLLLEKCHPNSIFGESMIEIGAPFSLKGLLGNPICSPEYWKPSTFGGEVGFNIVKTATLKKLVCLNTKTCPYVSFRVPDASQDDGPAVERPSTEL
Chain of Histamine H2 receptor (Homo sapiens) (P25021 whole entry): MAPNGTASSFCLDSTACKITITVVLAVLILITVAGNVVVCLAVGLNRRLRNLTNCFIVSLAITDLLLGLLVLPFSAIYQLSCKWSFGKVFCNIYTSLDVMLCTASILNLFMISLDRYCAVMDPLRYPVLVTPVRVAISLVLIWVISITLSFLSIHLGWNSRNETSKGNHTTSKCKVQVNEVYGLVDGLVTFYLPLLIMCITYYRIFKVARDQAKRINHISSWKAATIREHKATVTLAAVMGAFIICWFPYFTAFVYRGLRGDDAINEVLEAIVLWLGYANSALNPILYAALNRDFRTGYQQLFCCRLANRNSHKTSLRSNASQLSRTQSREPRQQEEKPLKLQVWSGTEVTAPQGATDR

For `O=C(NS(=O)(=O)c1ccc(NCC2CCOCC2)c([N+](=O)[O-])c1)c1ccc(N2CCN(Cc3ccc(C(F)(F)F)cc3-c3ccc(Cl)cc3)CC2)cc1Oc1cnc2[nH]ccc2c1` [A-1210227], the % Inhibition of Control Values (Mean n=2) [1] was 3.7%, the % Inhibition of Control Specific Binding (Mean n=2) [2] was -948% and the inhibition at 60 min, 10 µM [3] was 8.7%. The % Inhibition of Control Specific Binding (Mean n=2) [4] was 2.7%, the % Inhibition of Control Specific Binding (Mean n=2) [5] was 2.2% and the residual activity [6] was 94%. The residual activity [7] was 87%, the residual activity [8] was 92% and the residual activity [9] was 100%. For the same compound, the residual activity [10] was 95%, the residual activity [11] was 83% and the residual activity [12] was 76%. It also gave a residual activity [13] of 100%, a residual activity [14] of 100% and a residual activity [15] of 85%. For the same compound, the residual activity [16] was 81%, the residual activity [17] was 100% and the residual activity [18] was 100%. The residual activity [19] was 100%, the residual activity [20] was 91% and the residual activity [21] was 94%. The residual activity [22] was 81%, the residual activity [23] was 50% and the residual activity [24] was 100%. It also gave a residual activity [25] of 100%, a residual activity [26] of 81% and a residual activity [27] of 51%. The residual activity [28] was 73%, the residual activity [29] was 100% and the residual activity [30] was 100%. The residual activity [31] was 81%, the residual activity [32] was 100% and the residual activity [33] was 100%. For the same compound, the residual activity [34] was 100%, the inhibition [35] was 12.5% and the inhibition [36] was -5.79%.

`CO[C@H]1CC[C@H](CNc2ccc(S(=O)(=O)NC(=O)c3ccc(N4CCN(CC5=C(c6ccc(Cl)cc6)CC(C)(C)CC5)CC4)cc3Oc3cnc4[nH]ccc4c3)cc2[N+](=O)[O-])CC1` [A-1211212] gave a % Inhibition of Control Values (Mean n=2) [1] of 6.9%, a % Inhibition of Control Specific Binding (Mean n=2) [2] of -22% and an inhibition at 60 min, 10 µM [3] of -5.9%. For the same compound, the % Inhibition of Control Specific Binding (Mean n=2) [4] was 8.6%, the % Inhibition of Control Specific Binding (Mean n=2) [5] was 29.7% and the residual activity [6] was 94%. For the same compound, the residual activity [7] was 78%, the residual activity [8] was 80% and the residual activity [9] was 91%. The residual activity [10] was 89%, the residual activity [11] was 67% and the residual activity [12] was 78%. For the same compound, the residual activity [13] was 100%, the residual activity [14] was 100% and the residual activity [15] was 88%. For the same compound, the residual activity [16] was 100%, the residual activity [17] was 100% and the residual activity [18] was 91%. It also gave a residual activity [19] of 88%, a residual activity [20] of 89% and a residual activity [21] of 90%. The residual activity [22] was 74%, the residual activity [23] was 47% and the residual activity [24] was 100%. It also gave a residual activity [25] of 100%, a residual activity [26] of 75% and a residual activity [27] of 74%. For the same compound, the residual activity [28] was 88%, the residual activity [29] was 74% and the residual activity [30] was 100%. The residual activity [31] was 86%, the residual activity [32] was 100% and the residual activity [33] was 82%. It also gave a residual activity [34] of 100%, an inhibition [35] of 12.7% and an inhibition [36] of -0.31%.
